Measured values taken from US20240182444A1, “ANTI-VIRAL COMPOUNDS” (Aligos Therapeutics, Inc., priority 2022, published 2024).
Like-named read-outs stand apart in the source and are kept apart here.

Key:
SARS-Cov-2 3CLpro = molecular target: T1, SARS-Cov-2 3CLpro (Severe acute respiratory syndrome coronavirus 2, UniProt P0DTD1); assay: SARS-Cov-2 3CLpro protease assay (SAMDI-MS); type: biochemical
T1 construct: 3CLpro was added using a Multidrop Combi

[1] = test system: SARS-CoV-2 B.1.1.7 lineage; assay: microbe, parasite or virus in culture; type: cell-based; settings: Severe acute respiratory syndrome coronavirus 2, 96 h; read-out: A549-dual_ACE2_TMPRSS2 (EC50)
in vitro = settings: human
[2] = Cytotoxicity in HeLa cells without OC43 virus; type: cell-based; settings: human, HeLa cells (uninfected), in parallel
Method: (§1) The human beta-coronavirus OC43 was purchased from ATCC (Manassas, VA) and propagated using HCT-8 human colorectal epithelial cells (ATCC). HeLa human cervical epithelial cells (ATCC) were used as susceptible host cell lines and were cultured using EMEM media, supplemented with 10% fetal bovine serum (FBS), 1% (v/v) penicillin/streptomycin (P/S), 1% (v/v) HEPES and 1% (v/v) cellgro Glutagro™ supplement (all Corning, Manassas, VA) at 37° C. For the OC43 antiviral assay, 1.5×10^4 HeLa cells per well were plated in 100 μL complete media in white 96-well plates with clear bottoms at 37° C. for up to 24 h to facilitate attachment and allow cells to recover from seeding stresses. Next day, the cell culture medium was removed. Serially diluted compounds in 100 μL assay media (EMEM, 2% FBS, 1% P/S, 1% cellgro Glutagro™ supplement, 1% HEPES) were added to the cells and incubated for 4 h at 37° C. in a humidified 5% CO2 incubator. 100 μL of OC43 virus stock was diluted to a concentration known to produce optimal cytopathic effect, inducing 80-90% reduction in cell viability. 96-well plates were incubated for 6 days at 33° C.; each plate contains uninfected control wells as well as virus-infected wells that were not treated with compound. Cytotoxicity plates without the addition of OC43 virus were carried out in parallel. At the end of the incubation period, 100 μL cell culture supernatant was replaced with 100 μL cell-titer-glo reagent (Promega, Madison, WI) and incubated for at least 10 min at rt prior to measuring luminescence. Luminescence was measured on a Perkin Elmer (Waltham, MA) Envision plate reader. Antiviral % inhibition was calculated as follows: [(Compound treated cells infected sample)−(no compound infected control)]/[(Uninfected control)−(no compound infected control)]*100; Using GraphPad (San Diego, CA) prism software version 8.3.1, the antiviral dose-response plot was generated as a sigmoidal fit, log(inhibitor) vs response-variable slope (four parameters) model and the EC50 was calculated which is the predicted compound concentration corresponding to a 50% inhibition of the viral cytopathic effect.
(§2) Table 2 indicates related EC50 and CC50 values for the tested compounds ‘A’ indicates an EC50<100 nM, ‘B’ indicates an EC50 of ≥100 nM and <1000 nM, ‘C’ indicates an EC50≥1000 nM and <10000 nM and ‘D’ indicates an EC50≥10000 nM and <100000 nM. For CC50, the values are reported in micromolar (M), ‘A’ indicates a CC50≥10000 nM and ‘B’ indicates a CC50≥1 μM and <10 μM.

[3] = test system: human beta-coronavirus OC43; assay: OC43 coronavirus antiviral assay in HeLa cells; type: cell-based; settings: Betacoronavirus 1, 144 h, OC43, 6 days at 33° C., cell-titer-glo
Method: as §1, §2

[4] = 30 mins preincubation, duplex peptide substrates, read-out: SARS-Cov-2 (3CLpro IC50)

## COc1cccc2cncc([C@H](C#N)NC(=O)[C@@H]3[C@@H]4[C@H](CN3C(=O)[C@@H](NC(=O)C(F)(F)F)C(C)(C)C)[C@H]3C[C@@H]4[C@H](F)C3)c12 [Compound 29]
SARS-Cov-2 3CLpro; [4]
  IC50: 20 to 200 nM
[1]
  EC50: < 100 nM
In vitro
  CC50: > 1000 nM
[2]
  CC50 at 6 days: ≥ 10 µM
[3]
  EC50: 100 to 1000 nM

## CC(C)(C)[C@H](NC(=O)C(F)(F)F)C(=O)N1C[C@@H]2[C@H]3C[C@@H]([C@@H]2[C@H]1C(=O)NC1(C#N)CCCc2ccncc21)[C@H](F)C3 (some centres unmarked) [Compound 31]
SARS-Cov-2 3CLpro; [4]
  IC50: 2000 to 20000 nM
SARS-Cov-2 3CLpro; bound given in table footnote, read-out: SARS-Cov-2 activity (footnote of Table 1)
  IC50: > 2000 nM
[1]
  EC50: ≥ 1000 nM
In vitro
  CC50: > 1000 nM
[2]
  CC50 at 6 days: ≥ 10 µM
[3]
  EC50: 1000 to 10000 nM

## CC(C)(C)[C@H](NC(=O)C(F)(F)F)C(=O)N1C[C@H]2[C@@H]([C@H]1C(=O)NC1(C#N)CCc3ccncc31)[C@H]1C=C[C@@H]2C1 (stereo partly drawn) [Compound 5, (1R,2S,3S,6R,7S)—N-{7-cyano-5H,6H-cyclopenta[c]pyridin-7-yl}-4-[(2S)-3,3-dimethyl-2-(2,2,2-trifluoroacetamido)butanoyl]-4-azatricyclo[5.2.1.0^{2,6}]dec-8-ene-3-carboxamide]
SARS-Cov-2 3CLpro; [4]
  IC50: 200 to 2000 nM
[1]
  EC50: ≥ 1000 nM
In vitro
  CC50: > 1000 nM
[2]
  CC50 at 6 days: ≥ 10 µM
[3]
  EC50: 1000 to 10000 nM

## CC(C)(C)[C@H](NC(=O)C(F)(F)F)C(=O)N1C[C@@H]2[C@H]3C[C@@H]([C@@H]2[C@H]1C(=O)NC(C#N)c1cncc2c1OCCO2)[C@H](F)C3 (some centres unmarked) [Compound 27]
SARS-Cov-2 3CLpro; [4]
  IC50: 20 to 200 nM
[1]
  EC50: ≥ 1000 nM
In vitro
  CC50: > 1000 nM
[2]
  CC50 at 6 days: ≥ 10 µM
[3]
  EC50: 1000 to 10000 nM

## CC(C)(C)[C@H](NC(=O)C(F)(F)F)C(=O)N1C[C@@H]2[C@H]3C[C@@H]([C@@H]2[C@H]1C(=O)NC(C#N)c1cncc2ccccc12)[C@H](F)C3 (stereo partly drawn) [Compound 7, (1S,2R,3S,6R,7S,9R)—N-[cyano(isoquinolin-4-yl)methyl]-4-[(2S)-3,3-dimethyl-2-(2,2,2-trifluoroacetamido)butanoyl]-9-fluoro-4-azatricyclo[5.2.1.0^{2,6}]decane-3-carboxamide]
SARS-Cov-2 3CLpro; [4]
  IC50: < 20 nM
[1]
  EC50: < 100 nM
In vitro
  CC50: > 1000 nM
[2]
  CC50 at 6 days: ≥ 10 µM
[3]
  EC50: < 100 nM

## CC(C)(C)[C@H](NC(=O)C(F)(F)F)C(=O)N1C[C@H]2[C@@H]([C@H]1C(=O)NC(C#N)c1cncc3ccccc13)C2(C)C (stereo partly drawn) [Compound 11, (1R,2S,5S)—N-[cyano(isoquinolin-4-yl)methyl]-3-[(2S)-3,3-dimethyl-2-(2,2,2-trifluoroacetamido)butanoyl]-6,6-dimethyl-3-azabicyclo[3.1.0]hexane-2-carboxamide]
[1]
  EC50: < 100 nM
In vitro
  CC50: > 1000 nM
[2]
  CC50 at 6 days: ≥ 10 µM
[3]
  EC50: < 100 nM

## COc1cccn2ncc(C(C#N)NC(=O)[C@@H]3[C@@H]4[C@H](CN3C(=O)[C@@H](NC(=O)C(F)(F)F)C(C)(C)C)[C@H]3C[C@@H]4[C@H](F)C3)c12 (some centres unmarked) [Compound 19]
SARS-Cov-2 3CLpro; [4]
  IC50: < 20 nM
[1]
  EC50: < 100 nM
In vitro
  CC50: > 1000 nM
[2]
  CC50 at 6 days: ≥ 10 µM
[3]
  EC50: 100 to 1000 nM

## CC(C)(C)[C@H](NC(=O)C(F)(F)F)C(=O)N1CCC2(CC2)C[C@H]1C(=O)NC(C#N)c1cnn2ccccc12 (some centres unmarked) [Compound 18]
SARS-Cov-2 3CLpro; [4]
  IC50: < 20 nM
[1]
  EC50: 100 to 1000 nM
In vitro
  CC50: > 1000 nM
[2]
  CC50 at 6 days: ≥ 10 µM
[3]
  EC50: 100 to 1000 nM

## COc1cccc2cncc(C(C#N)NC(=O)[C@@H]3[C@@H]4[C@H](CN3C(=O)[C@@H](NC(=O)C(F)(F)F)C(C)(C)C)[C@H]3C[C@@H]4[C@H](F)C3)c12 (some centres unmarked) [Compound 26]
SARS-Cov-2 3CLpro; [4]
  IC50: < 20 nM
[1]
  EC50: < 100 nM
In vitro
  CC50: > 1000 nM
[2]
  CC50 at 6 days: ≥ 10 µM
[3]
  EC50: < 100 nM

## COc1cccc2cncc(C(C#N)NC(=O)[C@@H]3[C@@H](c4ccccc4)CCN3C(=O)[C@@H](NC(=O)C(F)(F)F)C(C)(C)C)c12 (some centres unmarked) [Compound 30]
SARS-Cov-2 3CLpro; [4]
  IC50: 20 to 200 nM
[1]
  EC50: ≥ 1000 nM
In vitro
  CC50: > 1000 nM
[2]
  CC50 at 6 days: ≥ 10 µM
[3]
  EC50: 1000 to 10000 nM

## CC(C)(C)[C@H](NC(=O)C(F)(F)F)C(=O)N1C[C@H]2[C@@H]([C@H]1C(=O)NC(C#N)c1cnc3ccccc3c1)[C@H]1C=C[C@@H]2C1 (some centres unmarked) [Compound 15]
SARS-Cov-2 3CLpro; [4]
  IC50: < 20 nM
[1]
  EC50: 100 to 1000 nM
In vitro
  CC50: > 1000 nM
[2]
  CC50 at 6 days: ≥ 10 µM
[3]
  EC50: 100 to 1000 nM

## CC(C)(C)[C@H](NC(=O)C(F)(F)F)C(=O)N1C[C@@H]2[C@H]3C[C@@H]([C@@H]2[C@H]1C(=O)NC(C#N)c1cncc2cccnc12)[C@H](F)C3 (stereo partly drawn) [Compound 9, (1S,2R,3S,6R,7S,9R)—N-[cyano(1,6-naphthyridin-8-yl)methyl]-4-[(2S)-3,3-dimethyl-2-(2,2,2-trifluoroacetamido)butanoyl]-9-fluoro-4-azatricyclo[5.2.1.0^{2,6}]decane-3-carboxamide]
SARS-Cov-2 3CLpro; [4]
  IC50: < 20 nM
[1]
  EC50: < 100 nM
In vitro
  CC50: > 1000 nM
[2]
  CC50 at 6 days: ≥ 10 µM
[3]
  EC50: < 100 nM

## CC(C)(C)[C@H](NC(=O)C(F)(F)F)C(=O)N1C[C@H]2[C@@H]([C@H]1C(=O)NC(C#N)c1nc[nH]n1)[C@H]1C=C[C@@H]2C1 (stereo partly drawn) [Compound 4, (1R,2S,3S,6R,7S)—N-[cyano(1H-1,2,4-triazol-3-yl)methyl]-4-[(2S)-3,3-dimethyl-2-(2,2,2-trifluoroacetamido)butanoyl]-4-azatricyclo[5.2.1.0^{2,6}]dec-8-ene-3-carboxamide]
SARS-Cov-2 3CLpro; [4]
  IC50: 200 to 2000 nM
[2]
  CC50 at 6 days: ≥ 10 µM
[3]
  EC50: 1000 to 10000 nM

## N#CC(NC(=O)[C@@H]1[C@@H]2[C@H](CN1C(=O)[C@H](CC1CC1)NC(=O)C(F)(F)F)[C@H]1C[C@@H]2[C@H](F)C1)c1cnn2ccccc12 (some centres unmarked) [Compound 24]
SARS-Cov-2 3CLpro; [4]
  IC50: < 20 nM
[1]
  EC50: 100 to 1000 nM
In vitro
  CC50: > 1000 nM
[2]
  CC50 at 6 days: ≥ 10 µM
[3]
  EC50: 100 to 1000 nM

## CC(C)(C)[C@H](NC(=O)C(F)(F)F)C(=O)N1CC2(CC2)C[C@H]1C(=O)NC(C#N)c1cnn2ccccc12 (stereo partly drawn) [Compound 17, (6S)—N-(cyano(pyrazolo[1,5-a]pyridin-3-yl)methyl)-5-((S)-3,3-dimethyl-2-(2,2,2-trifluoroacetamido)butanoyl)-5-azaspiro[2.4]heptane-6-carboxamide]
SARS-Cov-2 3CLpro; [4]
  IC50: 20 to 200 nM
[1]
  EC50: 100 to 1000 nM
In vitro
  CC50: > 1000 nM
[2]
  CC50 at 6 days: ≥ 10 µM
[3]
  EC50: 100 to 1000 nM

## N#CC(NC(=O)[C@@H]1[C@@H]2[C@H](CN1C(=O)c1cc3c(F)cc(F)cc3[nH]1)[C@@H]1C=C[C@H]2C1)c1cncc2ccccc12 (stereo partly drawn) [Compound 8, (1R,2S,3S,6R,7S)—N-[cyano(isoquinolin-4-yl)methyl]-4-(4,6-difluoro-1H-indole-2-carbonyl)-4-azatricyclo[5.2.1.0^{2,6}]dec-8-ene-3-carboxamide]
SARS-Cov-2 3CLpro; [4]
  IC50: 20 to 200 nM
[1]
  EC50: 100 to 1000 nM
In vitro
  CC50: > 1000 nM
[2]
  CC50 at 6 days: 1 to 10 µM
[3]
  EC50: 100 to 1000 nM

## Cn1cc(C(C#N)NC(=O)[C@@H]2[C@@H]3[C@H](CN2C(=O)[C@@H](NC(=O)C(F)(F)F)C(C)(C)C)[C@@H]2C=C[C@H]3C2)cn1 (stereo partly drawn) [Compound 6, (1R,2S,3S,6R,7S)—N-[cyano(1-methylpyrazol-4-yl)methyl]-4-[(2S)-3,3-dimethyl-2-(2,2,2-trifluoroacetamido)butanoyl]-4-azatricyclo[5.2.1.0^{2,6}]dec-8-ene-3-carboxamide]
SARS-Cov-2 3CLpro; [4]
  IC50: 20 to 200 nM
[1]
  EC50: 100 to 1000 nM
In vitro
  CC50: > 1000 nM
[2]
  CC50 at 6 days: ≥ 10 µM
[3]
  EC50: 1000 to 10000 nM

## CC(C)(C)[C@H](NC(=O)C(F)(F)F)C(=O)N1C[C@@H]2[C@H]3C[C@@H]([C@@H]2[C@H]1C(=O)NC(C#N)c1cncc2cnccc12)[C@H](F)C3 (some centres unmarked) [Compound 22]
SARS-Cov-2 3CLpro; [4]
  IC50: < 20 nM
[1]
  EC50: 100 to 1000 nM
In vitro
  CC50: > 1000 nM
[2]
  CC50 at 6 days: ≥ 10 µM
[3]
  EC50: 1000 to 10000 nM

## CC(C)(C)[C@H](NC(=O)C(F)(F)F)C(=O)N1C[C@@H]2[C@@H]3C[C@H]([C@@H]2[C@H]1C(=O)NC(C#N)c1cncc(-c2ccccc2)c1)[C@H](F)C3 (some centres unmarked) [Compound 14]
[1]
  EC50: 100 to 1000 nM
In vitro
  CC50: > 1000 nM
[2]
  CC50 at 6 days: ≥ 10 µM
[3]
  EC50: 10000 to 100000 nM
